Several values for one entry are separate records, joined by “and”; a condition that tells them apart may be missing. Equal values may be shown once. Toxic doses and inconclusive results are not listed.
Test system: L1210 leukemia ip in BDF1 mice, survival T/C
Test: NCI In Vivo Anticancer Drug Screen. Data for tumor model L1210 Leukemia (intraperitoneal) in B6D2F1 (BDF1) mice
Conditions: endpoint: mean survival time, higher = longer survival
In short: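 Read-out is survival time, reported as the treated-group measurement over the vehicle-control measurement.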

[1] = dose: 100.0 mg/kg/injection, schedule: Q01DX009 (ip), vehicle: Klucel (hydroxypropylcellulose) (HPC)
[2] = dose: 200.0 mg/kg/injection, schedule: Q01DX009 (ip), vehicle: Klucel (hydroxypropylcellulose) (HPC)
[3] = dose: 400.0 mg/kg/injection, schedule: Q01DX009 (ip), vehicle: Klucel (hydroxypropylcellulose) (HPC)
[4] = dose: 100.0 mg/kg/injection, schedule: Q04DX003 (ip), vehicle: saline
[5] = dose: 200.0 mg/kg/injection, schedule: Q04DX003 (ip), vehicle: saline
[6] = dose: 400.0 mg/kg/injection, schedule: Q04DX003 (ip), vehicle: saline
[7] = dose: 100.0 mg/kg/injection, schedule: Q04DX003 (ip), vehicle: saline with Tween-80
[8] = dose: 200.0 mg/kg/injection, schedule: Q04DX003 (ip), vehicle: saline with Tween-80
[9] = dose: 400.0 mg/kg/injection, schedule: Q04DX003 (ip), vehicle: saline with Tween-80
[10] = dose: 100.0 mg/kg/injection, schedule: Q01DX009 (ip), vehicle: saline with Tween-80
[11] = dose: 200.0 mg/kg/injection, schedule: Q01DX009 (ip), vehicle: saline with Tween-80
[12] = dose: 400.0 mg/kg/injection, schedule: Q01DX009 (ip), vehicle: saline with Tween-80

**Q.** What does the source list for `COc1ccccc1C(CC(=O)c1ccccc1)Sc1ccccc1N` (stereo unspecified)?
**A.** T/C (dose: 100.0 mg/kg/injection, schedule: Q01DX005 (ip), vehicle: Klucel (hydroxypropylcellulose) (HPC)): 118 % of control and 89 % of control; T/C [1]: 93 % of control; T/C (dose: 130.0 mg/kg/injection, schedule: Q01DX005 (ip), vehicle: Klucel (hydroxypropylcellulose) (HPC)): 97 % of control; T/C (dose: 200.0 mg/kg/injection, schedule: Q01DX005 (ip), vehicle: Klucel (hydroxypropylcellulose) (HPC)): 115 % of control and 90 % of control; T/C [2]: 93 % of control; T/C (dose: 300.0 mg/kg/injection, schedule: Q01DX005 (ip), vehicle: Klucel (hydroxypropylcellulose) (HPC)): 103 % of control; T/C (dose: 400.0 mg/kg/injection, schedule: Q01DX005 (ip), vehicle: Klucel (hydroxypropylcellulose) (HPC)): 96 % of control and 87 % of control; T/C [3]: 86 % of control

**Q.** With `COc1cccc2c1C(=O)c1c(O)c3c(c(O)c1C2=O)C[C@@](O)(C(=O)CO)C[C@@H]3OC1CC(NC(=S)Nc2ccc(F)cc2)C(O)C(C)O1` (stereo partly specified) as the compound, how does the T/C [4] read?
**A.** 111 % of control

**Q.** And the T/C [5]?
**A.** 106 % of control

**Q.** What about the T/C [6] of the same compound?
**A.** 104 % of control

**Q.** With `NCc1ccccc1[N+](=O)[O-]` as the compound, how does the T/C [4] read?
**A.** 104 % of control

**Q.** What about the T/C [5] of the same compound?
**A.** 104 % of control

**Q.** What about the T/C [6] of the same compound?
**A.** 102 % of control

**Q.** With `CC(=O)CCCOc1ccc([N+](=O)[O-])cc1` as the compound, how does the T/C (dose: 100.0 mg/kg/injection, schedule: Q01DX001 (ip), vehicle: saline) read?
**A.** 98 % of control

**Q.** What about the T/C (dose: 200.0 mg/kg/injection, schedule: Q01DX001 (ip), vehicle: saline) of the same compound?
**A.** 98 % of control

**Q.** And the T/C (dose: 400.0 mg/kg/injection, schedule: Q01DX001 (ip), vehicle: saline)?
**A.** 101 % of control

**Q.** For `N#C/C(=C\c1ccc2c(c1)CCC2)C(N)=O`, which T/C [7] is on record?
**A.** 105 % of control

**Q.** And the T/C [8]?
**A.** 95 % of control

**Q.** And the T/C [9]?
**A.** 95 % of control

**Q.** `O=C(CNS(=O)(=O)c1ccccc1)c1ccc(Cl)cc1Cl` was tested. Which T/C [1] did it give?
**A.** 94 % of control

**Q.** What about the T/C [2] of the same compound?
**A.** 105 % of control

**Q.** And the T/C [3]?
**A.** 95 % of control

**Q.** Which T/C (dose: 50.0 mg/kg/injection, schedule: Q01DX001 (ip), vehicle: carboxymethylcellulose (CMC)) does the source give for `CCOC(=O)C(F)=C(CF)CF` here?
**A.** 105 % of control

**Q.** And the T/C (dose: 100.0 mg/kg/injection, schedule: Q01DX001 (ip), vehicle: carboxymethylcellulose (CMC))?
**A.** 111 % of control

**Q.** What about the T/C (dose: 200.0 mg/kg/injection, schedule: Q01DX001 (ip), vehicle: carboxymethylcellulose (CMC)) of the same compound?
**A.** 109 % of control

**Q.** What about the T/C (dose: 400.0 mg/kg/injection, schedule: Q01DX001 (ip), vehicle: carboxymethylcellulose (CMC)) of the same compound?
**A.** 94 % of control

**Q.** For `CCCCCCCCCCCCC/C=N/Nc1ccc([N+](=O)[O-])cc1[N+](=O)[O-]`, which T/C (dose: 50.0 mg/kg/injection, schedule: Q01DX009 (ip), vehicle: saline with Tween-80) is on record?
**A.** 100 % of control

**Q.** What about the T/C [10] of the same compound?
**A.** 93 % of control

**Q.** What about the T/C [11] of the same compound?
**A.** 93 % of control

**Q.** What does the source list for `COC(=O)C(CSCSC)NC(=O)NC1CCCCC1` (stereo unspecified)?
**A.** T/C [10]: 91 % of control; T/C [7]: 102 % of control; T/C [11]: 91 % of control; T/C [8]: 89 % of control; T/C [12]: 91 % of control; T/C [9]: 91 % of control

**Q.** With `COc1c(NC(=O)C(Br)C(Br)C(=O)O)cccc1[N+](=O)[O-]` (stereo unspecified) as the compound, how does the T/C [10] read?
**A.** 100 % of control

**Q.** What about the T/C [11] of the same compound?
**A.** 95 % of control

**Q.** What about the T/C [12] of the same compound?
**A.** 95 % of control

**Q.** `CNC(=N)c1ccc(NC(=N)c2ccc(NC(=N)c3ccc(NC(=O)Nc4ccc(C(=N)NC)cc4)cc3)cc2)cc1` was tested. Which T/C (dose: 1.87 mg/kg/injection, schedule: Q01DX015 (ip), vehicle: water) did it give?
**A.** 114 % of control

**Q.** And the T/C (dose: 3.0 mg/kg/injection, schedule: Q01DX015 (sc), vehicle: water)?
**A.** 103 % of control

**Q.** What about the T/C (dose: 4.4 mg/kg/injection, schedule: Q01DX015 (sc), vehicle: water) of the same compound?
**A.** 101 % of control

**Q.** What about the T/C (dose: 6.7 mg/kg/injection, schedule: Q01DX015 (sc), vehicle: water) of the same compound?
**A.** 103 % of control

**Q.** What about the T/C (dose: 7.5 mg/kg/injection, schedule: Q01DX015 (ip), vehicle: water) of the same compound?
**A.** 206 % of control

**Q.** And the T/C (dose: 15.0 mg/kg/injection, schedule: Q01DX015 (sc), vehicle: water)?
**A.** 206 % of control

**Q.** And the T/C (dose: 22.5 mg/kg/injection, schedule: Q01DX015 (sc), vehicle: water)?
**A.** 158 % of control
